Laboratory results: publication PMC12074917, “Molecular pharmacokinetic mechanism of JBP485 against aristolochic acid I (AAI) -induced nephrotoxicity” (Frontiers in Pharmacology, 2025)

Tested on: rat kidney slices
Test: In vitro uptake of AAI in kidney slices
Assay type: in vitro ADME
Conditions: AAI 1 μM, JBP485 500 μM
Procedure: Rat kidneys were cut into slices with a ZQP-86 tissue slicer (Zhixin Co. Ltd., China), as previously described ([Wang et al., 2014]). After preincubation for 3 min at 37°C, the kidney slices were transferred to 24-well culture plates containing 1 mL of fresh oxygenated buffer with AAI (1 μM) and/or JBP485 (500 μM) and further incubated at 37 °C with gentle shaking. After incubation for 5, 15, and 30 min, the slices were washed with ice-cold Hanks’ balanced salt solution (pH 7.5). The amount of AAI accumulated in the homogenized kidneys was determined by LC–MS/MS.
The concentrations of the test compounds in plasma, urine, and cell lysates were determined using an Agilent HP1200 liquid chromatography system (Agilent Technology Inc., SC, CA, United States) and an API 3200 triple-quadrupole mass spectrometer (Applied Biosystems, SC, CA, United States). After protein precipitation using acetonitrile, the analyte was separated on a Hypersil BDS C18 column. The mobile phase consisted of acetonitrile and water containing 0.1% (v/v) formic acid (80:20, v/v). The flow rate was 0.4 mL/min. The mass spectrometer was equipped with an electrospray ionization (ESI) source. Data were acquired in positive ion mode and dynamic multiple reaction monitoring (MRM) mode. […]

O=C1N[C@@H](CO)C(=O)N2C[C@H](O)C[C@@H]12 (relative stereo) [JBP485, cyclo-trans-4-L-hydroxyprolyl-L-serine]
AAI uptake in kidney slices: inhibited
